What was measured:
cPLA2 = target: T1, cPLA2 (Homo sapiens, UniProt P47712); assay: Coumarin Assay (cPLA2 inhibition); assay type: biochemical; settings: for inhibition at 12.5 µM: CONCENTRATION 12.5 micromolar; for inhibition at 50 µM: CONCENTRATION 50 micromolar; for inhibition at 100 µM: CONCENTRATION 100 micromolar; for inhibition at 400 µM: CONCENTRATION 400 micromolar
T1 sequence (P47712 1-749): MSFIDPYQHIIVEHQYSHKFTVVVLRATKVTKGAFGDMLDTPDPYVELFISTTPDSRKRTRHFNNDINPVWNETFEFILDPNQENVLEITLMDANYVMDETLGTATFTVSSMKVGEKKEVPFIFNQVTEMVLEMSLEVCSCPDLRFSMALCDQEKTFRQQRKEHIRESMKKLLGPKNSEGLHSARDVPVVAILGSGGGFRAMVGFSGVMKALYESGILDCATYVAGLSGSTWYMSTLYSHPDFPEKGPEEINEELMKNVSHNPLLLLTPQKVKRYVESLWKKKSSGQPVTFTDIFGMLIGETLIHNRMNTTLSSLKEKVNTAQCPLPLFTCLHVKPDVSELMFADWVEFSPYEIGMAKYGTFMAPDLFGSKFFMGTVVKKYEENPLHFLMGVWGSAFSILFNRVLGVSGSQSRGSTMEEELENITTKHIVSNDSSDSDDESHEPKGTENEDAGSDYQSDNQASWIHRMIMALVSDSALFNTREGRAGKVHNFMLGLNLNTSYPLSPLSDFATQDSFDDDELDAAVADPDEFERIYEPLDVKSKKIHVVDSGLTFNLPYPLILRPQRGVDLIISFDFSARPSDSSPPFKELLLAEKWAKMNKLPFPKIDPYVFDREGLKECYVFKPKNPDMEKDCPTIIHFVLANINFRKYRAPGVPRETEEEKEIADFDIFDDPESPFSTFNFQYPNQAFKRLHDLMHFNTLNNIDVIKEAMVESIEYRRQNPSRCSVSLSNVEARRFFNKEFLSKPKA
Method in brief: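 Percent inhibition at the stated concentration, from the rate of 460 nm emission rise (360 nm excitation) per minute. Reaction started by adding 4 μg enzyme to compound and 60 μM 7-hydroxycoumarinyl 6-heptenoate in Hepes buffer pH 7.5 with 1 mM EDTA.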

[1] = tested on: Rat Carrageenan-Induced Footpad Edema; assay: Rat Carrageenan-Induced Footpad Edema Test; assay type: in vivo, male Sprague Dawley rats; settings: footpad volume 3 hours after carrageenan; for inhibition in vivo at 2 mg/kg / inhibition in vivo at 10 mg/kg / inhibition in vivo at 5 mg/kg: Rattus norvegicus, 3 h, read-out: PERCENT INHIBITION; for inhibition in vivo at 2 mg/kg / inhibition in vivo at 10 mg/kg: po; for inhibition in vivo at 2 mg/kg / inhibition in vivo at 10 mg/kg / PERCENT INHIBITION: PO; for inhibition in vivo at 5 mg/kg: iv, IV

## O=C(Nc1ccc2c(c1)c(Cc1ccc(C(=O)O)cc1)cn2C(c1ccccc1)c1ccccc1)OC1CCCC1 [Example 52, 4-[(1-benzhydryl-5-{[(cyclopentyloxy)carbonyl]amino}-1H-indol-3-yl)methyl]benzoic acid]
cPLA2; CONCENTRATION 19 micromolar, read-out: PERCENT INHIBITION @
  inhibition at 19 µM: 50%
cPLA2; CONCENTRATION 20 micromolar, read-out: PERCENT INHIBITION @
  inhibition at 20 µM: 50%
[1]; 2 mg/Kg
  inhibition in vivo at 2 mg/kg: -6.75%
[1]; 10 mg/Kg
  inhibition in vivo at 10 mg/kg: 3.33%

## Cc1ccccc1S(=O)(=O)NC(=O)c1ccc(Cc2cn(C(c3ccccc3)c3ccccc3)c3ccc(NC(=O)OC4CCCC4)cc23)cc1 [Example 53, cyclopentyl N-{1-benzhydryl-3-[4-({[(2-methylphenyl)sulfonyl]1amino}carbonyl)benzyl]-1H-indol-5-yl}carbamate]
cPLA2; CONCENTRATION 11 micromolar
  PERCENT INHIBITION @: 50%
cPLA2; CONCENTRATION 15.5 micromolar
  PERCENT INHIBITION @: 50%
[1]; 2 mg/Kg
  PERCENT INHIBITION: −1.81%
[1]; 10 mg/Kg
  PERCENT INHIBITION: 11.35%

## O=C(Nc1ccc2c(c1)c(Cc1ccc(C(=O)NS(=O)(=O)C(F)(F)F)cc1)cn2C(c1ccccc1)c1ccccc1)OC1CCCC1 [Example 54]
cPLA2; CONCENTRATION 2.8 micromolar
  PERCENT INHIBITION @: 50%
cPLA2; CONCENTRATION 3.9 micromolar
  PERCENT INHIBITION @: 50%
[1]; 2 mg/Kg
  PERCENT INHIBITION: 2.47%
[1]; 10 mg/Kg
  PERCENT INHIBITION: 14.29%

## O=C(NS(=O)(=O)C(F)(F)F)c1ccc(Cc2cn(C(c3ccccc3)c3ccccc3)c3ccc([N+](=O)[O-])cc23)cc1 [Example 55, N-{4-[(1-benzhydryl-5-nitro-1H-indol-3-yl)methyl]benzoyl}(trifluoro)methanesulfonamide]
cPLA2; CONCENTRATION 1.35 micromolar, read-out: PERCENT INHIBITION @
  inhibition at 1.35 µM: 50%
[1]; 2 mg/Kg
  inhibition in vivo at 2 mg/kg: 7.02%
[1]; 10 mg/Kg
  inhibition in vivo at 10 mg/kg: 21.5%

## Cc1ccccc1S(=O)(=O)NC(=O)c1ccc(Cc2cn(C(c3ccccc3)c3ccccc3)c3ccc([N+](=O)[O-])cc23)cc1 [Example 56, N-{4-[(1-benzhydryl-5-nitro-1H-indol-3-yl)methyl]benzoyl}-2-methylbenzenesulfonamide]
cPLA2; CONCENTRATION 0.98 micromolar, read-out: PERCENT INHIBITION @
  inhibition at 0.98 µM: 50%
cPLA2; CONCENTRATION 1.2 micromolar, read-out: PERCENT INHIBITION @
  inhibition at 1.2 µM: 50%
[1]; 2 mg/Kg
  inhibition in vivo at 2 mg/kg: 4.22%
[1]; 10 mg/Kg
  inhibition in vivo at 10 mg/kg: 9.34%

## Cc1ccccc1S(=O)(=O)NC(=O)c1ccc(Cc2cn(C(c3ccccc3)c3ccccc3)c3ccc(Br)cc23)cc1 [Example 57, N-{4-[(1-benzhydryl-5-bromo-1H-indol-3-yl)methyl]benzoyl}-2-methylbenzenesulfonamide]
cPLA2; CONCENTRATION 1.05 micromolar, read-out: PERCENT INHIBITION @
  inhibition at 1.05 µM: 50%
cPLA2; CONCENTRATION 1.38 micromolar, read-out: PERCENT INHIBITION @
  inhibition at 1.38 µM: 50%
cPLA2; CONCENTRATION 1.4 micromolar, read-out: PERCENT INHIBITION @
  inhibition at 1.4 µM: 50%
[1]; 2 mg/Kg
  inhibition in vivo at 2 mg/kg: 10.4%
[1]; 10 mg/Kg
  inhibition in vivo at 10 mg/kg: 20.7%

## O=C(NS(=O)(=O)C(F)(F)F)c1ccc(Cc2cn(C(c3ccccc3)c3ccccc3)c3ccc(Br)cc23)cc1 [Example 58, N-{4-[(1-benzhydryl-5-bromo-1H-indol-3-yl)methyl]benzoyl}(trifluoro)methanesulfonamide]
cPLA2; CONCENTRATION 1.65 micromolar, read-out: PERCENT INHIBITION @
  inhibition at 1.65 µM: 50%
[1]; 2 mg/Kg
  inhibition in vivo at 2 mg/kg: 13.8%
[1]; 10 mg/Kg
  inhibition in vivo at 10 mg/kg: 9.96%

## O=C(Nc1cccc(C(=O)O)c1)C(=O)c1cn(Cc2ccc(Cc3ccccc3)cc2)c2ccccc12 [Example 59, 3-({2-[1-(4-benzylbenzyl)-1H-indol-3-yl]-2-oxoacetyl}amino)benzoic acid]
cPLA2; CONCENTRATION 6 micromolar, read-out: PERCENT INHIBITION @
  inhibition at 6 µM: 50%
cPLA2; read-out: PERCENT INHIBITION @
  inhibition at 12.5 µM: 90%
[1]
  inhibition in vivo at 5 mg/kg: 2.9%

## O=C(Nc1cccc(C(=O)O)c1)C(=O)c1cn(C(c2ccccc2)c2ccccc2)c2ccccc12 [Example 61, 3-{[2-(1-benzhydryl-1H-indol-3-yl)-2-oxoacetyl]amino}benzoic acid]
cPLA2; CONCENTRATION 10 micromolar, read-out: PERCENT INHIBITION @
  inhibition at 10 µM: 50%
cPLA2; read-out: PERCENT INHIBITION @
  inhibition at 12.5 µM: 54%
[1]
  inhibition in vivo at 5 mg/kg: 18.3%

## O=C(Nc1cccc(C(=O)O)c1)C(=O)c1cn(Cc2ccc(OCc3ccccc3)c(OCc3ccccc3)c2)c2ccccc12 [Example 63, 3-[(2-{1-[3,4-bis(benzyloxy)benzyl]-1H-indol-3-yl}-2-oxoacetyl)amino]benzoic acid]
cPLA2; CONCENTRATION 2.5 micromolar, read-out: PERCENT INHIBITION @
  inhibition at 2.5 µM: 70%
cPLA2; CONCENTRATION 7 micromolar, read-out: PERCENT INHIBITION @
  inhibition at 7 µM: 50%
[1]
  inhibition in vivo at 5 mg/kg: 19.6%

## O=C(O)c1cccc(NCc2cn(C(c3ccccc3)c3ccccc3)c3ccc(NC(=O)C4CCCC4)cc23)c1 [Example 65, 3-[({1-benzhydryl-5-[(cyclopentylcarbonyl)amino]-1H-indol-3-yl}methyl)amino]benzoic acid]
cPLA2; read-out: PERCENT INHIBITION @
  inhibition at 50 µM: 47%
cPLA2; CONCENTRATION 72 micromolar, read-out: PERCENT INHIBITION @
  inhibition at 72 µM: 50%
cPLA2; CONCENTRATION 80 micromolar, read-out: PERCENT INHIBITION @
  inhibition at 80 µM: 50%
[1]
  inhibition in vivo at 5 mg/kg: 2.84%

## O=C(O)CN1CCN(Cc2cn(C(c3ccccc3)c3ccccc3)c3ccc(NC(=O)C4CCCC4)cc23)CC1 [Example 66, 2-[4-({1-benzhydryl-5-[(cyclopentylcarbonyl)amino]-1H-indol-3-yl}methyl)piperazino]acetic acid]
cPLA2; CONCENTRATION 70 micromolar, read-out: PERCENT INHIBITION @
  inhibition at 70 µM: 50%
cPLA2; CONCENTRATION 200 micromolar
  PERCENT INHIBITION @: 19%
cPLA2; CONCENTRATION 200 micromolar, read-out: PERCENT INHIBITION @
  inhibition at 200 µM: 15%
[1]
  inhibition in vivo at 5 mg/kg: 25.3%

## O=C(O)CC1C(=O)NCCN1Cc1cn(C(c2ccccc2)c2ccccc2)c2ccc(NC(=O)C3CCCC3)cc12 (stereo not shown) [Example 67, 2-[1-({1-benzhydryl-5-[(cyclopentylcarbonyl)amino]-1H-indol-3-yl}methyl)-3-oxo-2-piperazinyl]acetic acid]
cPLA2; read-out: PERCENT INHIBITION @
  inhibition at 100 µM: 8%
  inhibition at 400 µM: 31%
[1]
  inhibition in vivo at 5 mg/kg: 10.8%

## O=C(Nc1ccc2c(c1)c(CNC(CO)C(=O)O)cn2C(c1ccccc1)c1ccccc1)C1CCCC1 (stereo not shown) [Example 68, 2-[({1-benzhydryl-5-[(cyclopentylcarbonyl)amino]-1H-indol-3-yl}methyl)amino]-3-hydroxypropanoic acid]
cPLA2; read-out: PERCENT INHIBITION @
  inhibition at 100 µM: 9%
  inhibition at 400 µM: 18%
[1]
  inhibition in vivo at 5 mg/kg: -4.3%

## Cc1ccc(S(=O)(=O)NC(=O)c2cccc(NC(=O)C(=O)c3cn(Cc4ccc(Cc5ccccc5)cc4)c4ccc(OCc5ccccc5)cc34)c2)cc1 [Example 76, 2-[1-(4-benzylbenzyl)-5-(benzyloxy)-1H-indol-3-yl]-N-[3-({[(4-methylphenyl)sulfonyl]amino}carbonyl)phenyl]-2-oxoacetamide]
cPLA2; CONCENTRATION 4 micromolar, read-out: PERCENT INHIBITION @
  inhibition at 4 µM: 50%
[1]
  inhibition in vivo at 5 mg/kg: 14.8%

## O=C(O)Cc1cn(Cc2ccccc2)c2ccc(-c3cc4ccccc4o3)cc12 [Example 80, 2-[5-(1-benzofuran-2-yl)-1-benzyl-1H-indol-3-yl]acetic acid]
cPLA2; CONCENTRATION 48 micromolar, read-out: PERCENT INHIBITION @
  inhibition at 48 µM: 50%
cPLA2; read-out: PERCENT INHIBITION @
  inhibition at 50 µM: 60%
[1]
  inhibition in vivo at 5 mg/kg: 10.2%

## O=C(O)c1ccc(CN2C(=O)S/C(=C/c3cn(CCCOc4cccc(Cc5ccccc5)c4)c4ccccc34)C2=O)cc1 [Example 82B, 4-{[5-((E)-{1-[3-(3-benzylphenoxy)propyl]-1H-indol-3-yl}methylidene)-2,4-dioxo-1,3-thiazolan-3-yl]methyl}benzoic acid]
cPLA2; CONCENTRATION 6.25 micromolar, read-out: PERCENT INHIBITION @
  inhibition at 6.25 µM: 61%
cPLA2; CONCENTRATION 6.5 micromolar, read-out: PERCENT INHIBITION @
  inhibition at 6.5 µM: 50%
[1]
  inhibition in vivo at 5 mg/kg: 4.94%

Source: patent publication US6500853B1, “Inhibitors of phospholipase enzymes” (Genetics Institute, LLC, priority 1998, dated 2002)
